The test system of data set [1] is cholesterol biosynthesis in Hep G2 cells. As to the kind of experiment: Test B-1: Inhibition of cholesterol biosynthesis in culture cells (Hep G2). The class given is cell-based. As to conditions: Homo sapiens, HepG2, 100×10^-9 M/l, [2-14C]sodium acetate added at 0 hr, read-out: Inhibition activities by Test B-1. As to the method: Hep G2 cells at over 5th passage were seeded to 12 well plates and incubated with Dulbecco's modified Eagle (DME) medium containing 10% of fetal bovine serum (FBS) at 37° C., 5% CO2 until cells were confluent for about 7 days. Cells were exposed to the DME medium containing 5% of lipoprotein deficient serum (LpDS) prepared by ultracentrifugation method for over 24 hours. Medium was changed to 0.5 ml of fresh 5% LpDS containing DME before assay and 10 μl of test compound solution dissolved in water or DMSO were added. 0.2 μCi of [2-^14 C]sodium acetate (20 μl) was added at 0 hr(B-1) or 4 hrs(B-2) after addition of compounds. After 4 hrs further incubation with [2-^14 C] sodium acetate, medium was removed and cells were washed with phosphate buffered saline (PBS) chilled at 4° C. Cells were scraped with rubber policeman and collected to tubes with PBS and digested with 0.2 ml of 0.5 N KOH at 37° C. Aliquot of digestion was used for protein analysis and remaining was saponified with 1 ml of 15% EtOH-KOH at 75° C. for 1 hour. Nonsaponifiable lipids were extracted with petroleum ether and ^14 C radioactivity was counted. Counts were revised by cell protein and indicated with DPM/mg protein. Inhibitory activity of compounds was indicated with IC50.
With respect to the compounds of the present invention, the inhibitory activities against the cholesterol biosynthesis in which HMG-CoA reductase serves as a rate limiting enzyme, were measured by the above Test A and B. The results are shown in Tables 2 and 3.
In Table 3, the inhibition activities of the test compounds at a concentration of 100×10^-9 M/l, are shown.

The target in data set [2] is cholesterol biosynthesis in which HMG-CoA reductase serves as a rate limiting enzyme. The data set can be described thus: Test A: Inhibition of cholesterol biosynthesis from acetate in vitro. The class given is biochemical, male Wistar rat. As to conditions: for Relative activities by Test A: based on the activities of CS-514 by Test A being evaluated to be 1. How it is done: Enzyme solution was prepared from liver of male Wistar rat billialy connulated and discharged bile for over 24 hours. Liver was cut out at mid-dark and microsome and supernatant fraction which was precipitable with 40-80% of solution of ammonium sulfate (sup fraction) were prepared from liver homogenate according to the modified method of Knauss et. al.; Kuroda, M., et. al., Biochim. Biophys. Acta, 489, 119 (1977). For assay of cholesterol biosynthesis, microsome (0.1 mg protein) and sup fraction (1.0 mg protein) were incubated for 2 hours at 37° C. in 200 μl of the reaction mixture containing ATP; 1 mM, Glutathione; 6 mM, Glucose-1phosphate; 10 mM, […]; 0.25 mM, NADP; 0.25 mM, CoA; 0.04 mM and 0.2 mM [2-14C]sodium acetate (0.2 μCi) with 4 μl of test compound solution dissolved in water or dimethyl sulfoxide. To stop reaction and saponify, 1 ml of 15% EtOH-KOH was added to the reactions and heated at 75° C. for 1 hour. Nonsaponifiable lipids were extracted with petroleum ether and incorporated ^14 C radioactivity was counted. Inhibitory activity of compounds was indicated with IC50.

Data set [3] concerns cholesterol biosynthesis. The data set can be described thus: Test C: Inhibition of cholesterol biosynthesis in vivo. As to conditions: oral, 0.2 mg/kg. On the set-up: species or system male Sprague-Dawley rats. As to the method: Male Sprague-Dawley rats weighing about 150 g were fed normal Purina chow diet and water ad libitum, and exposed to 12 hours light/12 hours dark lighting pattern
(2:00 PM -2:00 AM dark) prior to use for in vivo inhibition test of cholesterol biosynthesis. Animals were separated groups consisting of five rats as to be average mean body weight in each groups. Test compounds at dosage of 0.02-2.0 mg/kg body weight (0.4 ml/100 g body weight), were dissolved in water or suspended in 0.5% methyl cellulose and orally administered at 2-3 hours before mid-dark (8:00 PM), while cholesterol biosynthesis reaches to maximum in rats. As control, rats were orally administered only water or vehicle. At 90 minutes after sample administration, rats were injected intraperitoneally with 10 μCi of [2-^14 C]sodium acetate at volume of 0.2 ml per one. 2 Hours later, blood samples were obtained and serum were separated immediately. Total lipids were extracted according to the method of Folch et al. and saponified with EtOH-KOH. Nonsaponifiable lipids were extracted with petroleum ether and radio activity incorporated into nonsaponifiable lipids was counted.
Inhibitory activity was indicated as percent decrease of counts in testing groups (DPM/2 ml serum/2 hours) from that in control group.

Data set [4] relates to ICR male mice. The data set can be described thus: Test D: Acute toxicity. It counts as in vivo. Conditions: oral, 0.5% CMC suspension, group of three mice; dose not given. How it is done:
A 0.5% CMC suspension of a test compound was orally administered to ICR male mice (group of three mice). The acute toxicity was determined based on the mortality after seven days.

6 compounds from patent US4977161A, “Isoxazolopyridine type mevalonolactones” (Nissan Chemical Industries, Ltd., priority 1988, dated 1990) can be followed below.

What is called inhibition is how much of the control response was suppressed. As a reminder, the IC50 is the concentration that inhibits the measured activity by half. Higher therefore signals weaker potency in that assay. For the compound `CC[C@H](C)C(=O)O[C@H]1C[C@H](O)C=C2C=C[C@H](C)[C@H](CC[C@@H](O)C[C@@H](O)CC(=O)O)[C@H]21` [CS-514, reference compound], the inhibition at 0.1 µM in data set [1] was 18.4%. In data set [2] (rat liver microsome and sup fraction, [2-14C]sodium acetate, 2 hours at 37° C.), the midpoint of inhibition, the IC50, lay at 9 nM. Besides, the “percent decrease of counts relative to the control group (DPM/2 ml serum/2 hours)” value in data set [3] was determined as 34%.
Regarding `CCOC(=O)CC(O)CC(O)/C=C/c1c(C(C)C)nc2onc(C)c2c1-c1ccc(F)cc1` (stereo not drawn) [Compound I-1-1], the inhibition at 0.1 µM in data set [1] came out at 50.1%. The “Relative activities by Test A” value in data set [2] is 1.6.
As for `CCOC(=O)CC(O)CC(O)/C=C/c1c(C(C)C)nc2onc(-c3ccccc3)c2c1-c1ccc(F)cc1` (stereo not drawn) [Compound I-1-2], in data set [1], the inhibition at 0.1 µM came out at 57.3%.
In the case of `Cc1noc2nc(C(C)C)c(/C=C/C(O)CC(O)CC(=O)O)c(-c3ccc(F)cc3)c12` (stereo not drawn) [Compound I-5-1, Sodium (E)-7-[4'-(4"-fluorophenyl)-3'-methyl-6'-(1"-methylethyl)isoxazolo[5,4-b]pyridin-5'-yl]-3,5-dihydroxyhept-6-enoate], the “Relative activities by Test A” value in data set [2] came to 1.3.
In the case of `CC(C)c1nc2onc(-c3ccccc3)c2c(-c2ccc(F)cc2)c1/C=C/C(O)CC(O)CC(=O)O` (stereo not drawn) [Compound I-5-2], the inhibition at 0.1 µM in data set [1] was determined as 43.2%. In data set [2], the “Relative activities by Test A” value was 0.6. Besides, the “acute toxicity, mortality after seven days” value in data set [4] is on record as “only one animal of the three animals died”. The “percent decrease of counts relative to the control group (DPM/2 ml serum/2 hours)” value in data set [3] was found to be 34.3%.
On to `CCOC(=O)CC(=O)CC(O)/C=C/c1c(C(C)C)nc2onc(C)c2c1-c1ccc(F)cc1` (stereo not drawn) [Compound II-1, Ethyl (E)-7-[4'-(4"-fluorophenyl)-3'-methyl-6'-(1"-methylethyl)isoxazolo[-5,4-b]pyridin-5-yl]-5'-hydroxy-3-oxohepto-6-enoate], for which the inhibition at 0.1 µM in data set [1] came out at 52.6%.
